Test results as given in US5873359A, “Methods and devices for treating pulmonary vasoconstriction and asthma” (The General Hospital Corporation, priority 1994, dated 1999).

Legend:
[1] = test system: acute hypoxic pulmonary hypertension; experiment: Inhaled NO in lambs with pulmonary vasoconstriction induced by hypoxia; assay type: in vivo
Description: Five awake lambs were studied during a period of breathing a hypoxic gas mixture to induce acute hypoxic pulmonary hypertension. Three lambs were excluded due to sepsis and heart failure. Hemodynamic monitoring techniques similar to those described above were used. We employed a non-rebreathing circuit containing a 25 liter reservoir bag and the Fi O2 was reduced to 0.06-0.08 to produce a mean PAP near 25 mm Hg at a Pa O2 near 30 mm Hg. Either 40 or 80 ppm NO was then added to the inspired gas mixture. Total gas flows were maintained at 35 l/min to prevent rebreathing due to hyperventilation. The inspired Fi O2 was monitored with n electrode (model 5590, Hudson Co., Temecala, Calif.) and pure CO2 was added to the inspired gas to maintain the end tidal CO2 concentration at 4.5-6%. Measurements of central hemodynamics and gas exchange were obtained at baseline, during hypoxia, and at 3 and 6 minutes of No breathing during hypoxia. Comparisons were performed using paired t-tests.

ARDS = experiment: NO inhalation in nine additional ARDS patients; assay type: in vivo, human
Text: Subsequent subjects. Nine additional patients have been treated for ARDS by NO inhalation, for periods up to 28 days.

[2] = test system: U46619-induced pulmonary vasoconstriction; experiment: Inhaled NO in lambs with U46619-induced pulmonary vasoconstriction; assay type: in vivo, Suffolk lambs
Text: Eight Suffolk lambs weighing 25-35 kg underwent a sterile thoracotomy in order to place a left atrial line, tracheostomy and femoral artery line under general endotracheal anesthesia with halothane/oxygen three days before study. After three days of recovery the lambs underwent sterile placement of a 7 French thermal dilution pulmonary artery monitoring catheter under local anesthesia.
Awake unanesthetized lambs were studied in order to avoid general anesthesia which can blunt hypoxic vasoconstriction. Lambs were placed in a Babraham cage and allowed to drink and eat ad lib. Two studies were performed 2 days apart on each of six lambs. After the study the lambs were sacrificed with an overdose of barbiturate and heir lungs were fixed, stained and examined by light microscopy for pathological changes.
On the first study day lambs breathing 60-70% oxygen were given an infusion of a potent pulmonary vasoconstrictor, the stable endoperoxide analog (5Z, 9α, 13E, 15S)-11,9-(Epoxymethano)prosta-5,13-dien-1-oic acid (U46619, The Upjohn Company, Kalamazoo, Mich.) of thromboxane at a rate of 0.4-0.8 μg/kg/min. The tracheostomy was connected to a non-rebreathing circuit consisting of a 5 liter reservoir bag and one way valves to isolate inspired from expired gas. Expired gas was scavenged and discarded. The inspired gas was a precise mixture of oxygen and nitrogen immediately diluted with NO to produce the correct inspired concentration. Using volumetrically calibrated flowmeters, varying quantities of NO were mixed with N2 to obtain the desired inspired NO concentration at an inspired oxygen concentration (Fi O2) of 0.6-0.7. The reservoir bag was emptied after each level of NO inhalation. The residence half time of NO in the gas reservoir was 15 seconds or less to minimize conversion to NO2. NO was obtained from Air Products and Chemicals, Inc., Allentown, Pa. as a mixture of 235 ppm NO in pure N2. […] Fontijin, Anal. Chem. 27:1903 (1981).
Each level of NO exposure was followed by six minutes of breathing the oxygen mixture without NO (FIG. 2). A second exposure to NO was examined for similar periods. Subsequently, a control period breathing the oxygen mixture was studied six minutes after ceasing U46619 infusion. At each three and six minute time period after administering or discontinuing NO during the study, we measured mean and phasic pulmonary artery pressure (PAP), left atrial pressure (LAP), systemic arterial pressure (SAP) and central venous pressure (CVP). All pressures were recorded on a Hewlett Packard multi-channel strip chart recorder with transducers zeroed to atmospheric pressure at the mid point of the thorax (e.g., see FIG. 3). Cardiac output (CO) was measured by thermal dilution as the average of two determinations injecting 5 ml of 0° C. Ringers lactate. Pulmonary vascular resistance (PVR) and systemic vascular resistance (SVR) were computed by standard formulae; PVR measured at each inhaled NO concentration is shown in FIG. 4. Appropriate statistical analyses were performed, and all data were expressed as mean ± standard error.

[3] = hypoxia + 40-80 ppm NO, FiO2 0.06-0.08, n = 5, mean ± S.E.
[4] = hypoxia + 40-80 ppm NO, n = 5, mean ± S.E.
[5] = hypoxia + 40-80 ppm NO, n = 5, mean ± S.E., p < .01 vs hypoxia
[6] = regression vs NO concentration, eight lambs

In the case of `[N]=O` [NO, nitric oxide], the “Pa O2 during hypoxia with vs without NO” value ([1]; 40 or 80 ppm NO) is reported as “similar”, the “Pv O2 during hypoxia with vs without NO” value ([1]; 40 or 80 ppm NO) is reported as “similar” and the “drop of mean PVR” value ([1]; 40 or 80 ppm NO) is reported as 33%. The pulmonary artery pressure ([1]; 40 or 80 ppm NO) was “returned to control levels”, the “Pa CO2” value [1, 3] was 40.0 ± 2.7 mm Hg and the “PaO2” value [1, 3] was 31.1 ± 1.7 mm Hg. For the same compound, the “Pv O2” value [1, 3] was 19.8 ± 3.2 mm Hg, the pHa [1, 3] was 7.40 ± 0.03 and the CO [1, 4] was 7.56 ± 0.79 L/min. For the same compound, the CVP [1, 4] was 2.8 ± 1.6 mm Hg, the LAP [1, 4] was 4.2 ± 1.0 mm Hg and the SVR [1, 4] was 13.7 ± 1.0 mm Hg/l/min. It also gave a PAP [1, 5] of 18.7 ± 1.1 mm Hg, a PVR [1, 5] of 2.01 ± 0.35 mm Hg/l/min and an SAP [1, 5] of 106 ± 5 mm Hg. For the same compound, the methemoglobin levels (ARDS; NO inhalation up to 28 days) was “No important increase of methemoglobin levels”, the PAP (ARDS; during NO breathing) was “reduced PAP” and the “QVA /QT” value (ARDS; during NO breathing) was “marked reductions of QVA /QT”. The survival (ARDS; nine patients, up to 28 days) was “Seven survived”, the PA pressure ([2]; 5 ppm NO (0.89 μg/kg/min)) was “significantly reduced the PA pressure” and the vasodilator response ([2]; 40 or 80 ppm NO) was “almost complete vasodilator response”. The PAP ([2]; 80 ppm NO for one hour, four lambs) was “pulmonary vasodilation to a normal PAP”, the “time to nearly maximal vasodilator effect” value ([2]; FIG. 3) was “within three minutes” and the “pulmonary hypertension after NO inhalation” value ([2]; after 80 ppm NO for one hour, four lambs) was “pulmonary hypertension recurring after NO inhalation”. For the same compound, the “onset of pulmonary vasodilation” value ([2]; after beginning NO inhalation) was “within seconds”, the “return to prior level of vasoconstriction after ceasing NO” value ([2]; after ceasing to inhale NO) was “within three to six minutes” and the “pulmonary vasoconstriction and pulmonary hypertension” value ([2]; all dose levels of NO (5-80 ppm)) was “prompt reduction of the pulmonary vasoconstriction and pulmonary hypertension”. The CO [2, 6] was “no significant change”, the SVR [2, 6] was “no significant change” and the “mean SAP” value [2, 6] was “no significant change”. For the same compound, the “vasodilator response of second exposure” value ([2]; second exposure to 5, 10 and 20 ppm NO) was “no significant reduction from the prior series of exposures”.
